Test results from the NIST ThermoML archive (doi:10.1021/je049899g).

How the values were obtained:
[1] = 298.15 K, 101.33 kPa, Liquid; for viscosity: Capillary tube (Ostwald / Ubbelohde) method; for speed of sound: Sing-around technique in a fixed-path interferometer; for mass density: Vibrating tube method
[2] = xn = mol fraction of the nth substance listed; conditions: 298.15 K, 101.33 kPa, Liquid; for viscosity: Capillary tube (Ostwald / Ubbelohde) method; for speed of sound: Sing-around technique in a fixed-path interferometer; for mass density: Vibrating tube method

Cc1ccccc1C [1,2-dimethylbenzene]
[1]
Conditions | mass density [kg/m3] | speed of sound [m/s] | viscosity [mPa·s]
– | 875.2 | 1349 | 0.769

Cc1ccccc1C [1,2-dimethylbenzene] + CC(=O)CC(C)C
[2], x1 = 1
Conditions | mass density [kg/m3] | speed of sound [m/s] | viscosity [mPa·s]
– | 875.2 | 1349 | 0.769

Cc1cccc(C)c1 [1,3-dimethylbenzene]
[1]
Conditions | mass density [kg/m3] | speed of sound [m/s] | viscosity [mPa·s]
– | 859.4 | 1323 | 0.587

Cc1cccc(C)c1 [1,3-dimethylbenzene] + CC(=O)CC(C)C
[2], x1 = 1
Conditions | mass density [kg/m3] | speed of sound [m/s] | viscosity [mPa·s]
– | 859.4 | 1323 | 0.587

Cc1ccc(C)cc1 [1,4-dimethylbenzene]
[1]
Conditions | mass density [kg/m3] | speed of sound [m/s] | viscosity [mPa·s]
– | 856.1 | 1316 | 0.609

Cc1ccc(C)cc1 [1,4-dimethylbenzene] + CC(=O)CC(C)C
[2], x1 = 1
Conditions | mass density [kg/m3] | speed of sound [m/s] | viscosity [mPa·s]
– | 856.1 | 1316 | 0.609

CC(=O)CC(C)C [4-methylpentan-2-one]
[1]
Conditions | mass density [kg/m3] | speed of sound [m/s] | viscosity [mPa·s]
– | 796 | 1215 | 0.55

CC(=O)CC(C)C [4-methylpentan-2-one] + CC(C)c1ccccc1
[2], x2 = 0
Conditions | mass density [kg/m3] | speed of sound [m/s] | viscosity [mPa·s]
– | 796 | 1215 | 0.55

CC(=O)CC(C)C [4-methylpentan-2-one] + Cc1ccc(C)cc1
[2]
Conditions | mass density [kg/m3] | speed of sound [m/s] | viscosity [mPa·s]
x2 = 0 | 796 | 1215 | 0.55
x2 = 0.059 | 800.1 | 1215 | 0.553
x2 = 0.1454 | 805.8 | 1226 | 0.556
x2 = 0.2887 | 814.9 | 1248 | 0.562
x2 = 0.4325 | 823.6 | 1267 | 0.567
x2 = 0.5735 | 832.2 | 1284 | 0.572
x2 = 0.7166 | 840.5 | 1300 | 0.579
x2 = 0.8587 | 848.4 | 1311 | 0.591
x2 = 0.9419 | 853 | 1315 | 0.6

CC(=O)CC(C)C [4-methylpentan-2-one] + Cc1cccc(C)c1
[2]
Conditions | mass density [kg/m3] | speed of sound [m/s] | viscosity [mPa·s]
x2 = 0 | 796 | 1215 | 0.55
x2 = 0.0586 | 801.4 | 1207 | 0.554
x2 = 0.1483 | 809.5 | 1212 | 0.558
x2 = 0.2898 | 821.2 | 1233 | 0.564
x2 = 0.4312 | 830.5 | 1257 | 0.567
x2 = 0.5762 | 837.4 | 1280 | 0.569
x2 = 0.7187 | 842.8 | 1299 | 0.572
x2 = 0.8591 | 849 | 1314 | 0.577
x2 = 0.9429 | 854.4 | 1321 | 0.582

CC(=O)CC(C)C [4-methylpentan-2-one] + Cc1ccccc1C
[2]
Conditions | mass density [kg/m3] | speed of sound [m/s] | viscosity [mPa·s]
x2 = 0 | 796 | 1215 | 0.55
x2 = 0.0598 | 801.3 | 1214 | 0.562
x2 = 0.1483 | 808.9 | 1220 | 0.577
x2 = 0.2932 | 820.7 | 1237 | 0.605
x2 = 0.4368 | 832.2 | 1263 | 0.631
x2 = 0.582 | 843.4 | 1294 | 0.662
x2 = 0.7227 | 854.5 | 1318 | 0.694
x2 = 0.8635 | 865.1 | 1336 | 0.73
x2 = 0.9457 | 871.2 | 1345 | 0.751

CC(C)c1ccccc1 [isopropylbenzene]
[1]
Conditions | mass density [kg/m3] | speed of sound [m/s] | viscosity [mPa·s]
– | 857.1 | 1338 | 0.739

CC(C)c1ccccc1 [isopropylbenzene] + CC(=O)CC(C)C
[2]
Conditions | mass density [kg/m3] | speed of sound [m/s] | viscosity [mPa·s]
x1 = 0.0518 | 799.4 | 1227 | 0.563
x1 = 0.1305 | 804.6 | 1231 | 0.579
x1 = 0.2631 | 813.4 | 1234 | 0.6
x1 = 0.4022 | 822.6 | 1246 | 0.621
x1 = 0.5439 | 831.5 | 1262 | 0.645
x1 = 0.6917 | 840.3 | 1282 | 0.672
x1 = 0.842 | 848.7 | 1309 | 0.704
x1 = 0.9355 | 853.7 | 1325 | 0.725
x1 = 1 | 857.1 | 1338 | 0.739
